Legend:
Serine protease 1 = Serine protease 1 (Homo sapiens, UniProt P07477); assay: Inhibition Assay: Using a 96 well plate (#3915, Costar), a test compound (25 μL) was mixed with 20 μM fluorescence enzyme substrate (Boc-Phe-Ser-Arg-AMC, 50 μL) mixed with 200 mM Tris-HCl buffer (pH 8.0), and human trypsin (Sigma, 25 μL) was added. Using a fluorescence plate reader fmax (Molecular Devices, Inc.), the reaction rate was measured from the time-course changes at excitation wavelength 355 nm and fluorescence wavelength 460 nm.
Enteropeptidase = Enteropeptidase (Homo sapiens, UniProt P98073); assay: Inhibition Assay: Using a 96 well plate (#3915, Costar), a test compound (25 μL), 400 mM Tris-HCl buffer (pH 8.0, 25 μL) and 0.5 mg/mL fluorescence enzyme substrate (Gly-Asp-Asp-Asp-Asp-Lys-β-Naphtylamide, 25 μL) were mixed, and recombinant human enteropeptidase (R&D Systems, Inc., 25 μL) was added. Using a fluorescence plate reader fmax (Molecular Devices, Inc.), the reaction rate was measured from the time-course changes at excitation wavelength 320 nm and fluorescence wavelength 405 nm.
Chain of Enteropeptidase (P98073 2-784 limits assumed): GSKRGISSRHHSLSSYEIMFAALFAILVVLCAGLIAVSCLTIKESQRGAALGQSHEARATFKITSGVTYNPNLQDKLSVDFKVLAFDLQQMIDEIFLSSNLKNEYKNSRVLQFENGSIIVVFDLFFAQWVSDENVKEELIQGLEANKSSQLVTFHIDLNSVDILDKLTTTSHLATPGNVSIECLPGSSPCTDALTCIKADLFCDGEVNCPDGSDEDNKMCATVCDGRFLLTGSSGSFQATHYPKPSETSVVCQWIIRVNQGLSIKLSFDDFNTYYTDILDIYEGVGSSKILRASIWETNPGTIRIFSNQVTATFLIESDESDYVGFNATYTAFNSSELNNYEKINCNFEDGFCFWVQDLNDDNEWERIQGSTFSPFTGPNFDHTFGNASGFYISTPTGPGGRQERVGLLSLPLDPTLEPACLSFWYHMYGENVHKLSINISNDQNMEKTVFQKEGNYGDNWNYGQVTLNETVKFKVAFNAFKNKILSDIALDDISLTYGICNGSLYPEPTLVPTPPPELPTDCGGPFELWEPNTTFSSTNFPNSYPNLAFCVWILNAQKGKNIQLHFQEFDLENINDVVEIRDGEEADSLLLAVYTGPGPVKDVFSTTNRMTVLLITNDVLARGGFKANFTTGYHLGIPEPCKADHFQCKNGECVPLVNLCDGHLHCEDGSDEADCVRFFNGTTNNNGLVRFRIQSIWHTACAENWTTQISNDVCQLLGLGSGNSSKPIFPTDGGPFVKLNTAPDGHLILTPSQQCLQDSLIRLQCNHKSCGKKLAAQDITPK
Chain of Enteropeptidase (P98073 785-1019 limits assumed): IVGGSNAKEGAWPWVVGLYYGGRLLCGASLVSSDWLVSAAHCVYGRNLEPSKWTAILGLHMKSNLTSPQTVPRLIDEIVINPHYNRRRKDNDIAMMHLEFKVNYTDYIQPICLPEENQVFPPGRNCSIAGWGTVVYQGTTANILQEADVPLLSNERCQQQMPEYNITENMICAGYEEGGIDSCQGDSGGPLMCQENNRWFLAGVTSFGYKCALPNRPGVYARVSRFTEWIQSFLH

Chain of Serine protease 1 (P07477 whole entry): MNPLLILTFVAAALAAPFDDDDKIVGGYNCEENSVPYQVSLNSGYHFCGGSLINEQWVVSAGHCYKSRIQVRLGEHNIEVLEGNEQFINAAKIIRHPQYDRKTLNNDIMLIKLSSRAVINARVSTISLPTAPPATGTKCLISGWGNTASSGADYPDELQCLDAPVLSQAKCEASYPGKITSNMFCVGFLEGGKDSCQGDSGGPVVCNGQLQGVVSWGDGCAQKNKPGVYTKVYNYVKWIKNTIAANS

CCC(CC)(Cc1ccc(C(=O)Oc2ccc(C(=N)N)cc2F)s1)C(=O)N[C@@H](CCC(=O)O)C(=O)O
Ki (Serine protease 1): 2.01 nM | Ki (Enteropeptidase): 0.27 nM

Reference: ChEMBL document CHEMBL3639122, “Heteroarylcarboxylic acid ester derivative” (2015)
